# From the CATMoS acute toxicity set (Mansouri et al. 2021)
# Assay: GHS categories as the set defines them, by LD50: 1 up to 5, 2 up to 50, 3 up to 300, 4 up to 2000, 5 above 2000 mg/kg
# Conditions: rat; in vivo; po
# Description: […]The data set underlying the modeling effort for this project was initially compiled by NICEATM and U.S. EPA’s CCTE. Briefly, LD50 data were collected from rat acute oral systemic toxicity tests, including limit tests, ranges/confidence intervals, and discrete LD50 values. The full data set included 21,200 LD50 entries for 15,688 substances. […] Data were reviewed to ensure that LD50 values with obvious errors in the extracted data such as unit conversion errors (e.g., comma and decimal separator misplacements) were either fixed or removed. After this review, 16,209 LD50 values remained. Many of the chemicals represented had multiple LD50 entries, requiring that a single representative value per Chemical Abstracts Service Registry Number (CASRN) identifier be defined to facilitate modeling efforts. Based on ATWG feedback and to define the representative LD50 as a protective value while accounting for the distribution across multiple LD50s, the median of the lowest quartile was computed using only discrete LD50 values (omitting limit test data and range and confidence interval data). A detailed summary of the data compilation is available online on the NICEATM webpage dedicated to the collaborative modeling project (NTP 2020).
# […][…] For categorical designations, limit test and range/confidence interval LD50 data were integrated wherever possible. As such, the number of chemicals with end point values/calls varies across the modeling end points (Table 3) based on whether chemicals had representative LD50 values and/or other data. If a chemical had both, the representative value was used to determine categorical calls rather than limit test data. Some data were useable only for certain end points and categories depending on the thresholds. For example, ranges that spanned multiple hazard categories were considered only for the binary (very toxic/nontoxic) end points and omitted from rendering a determination for hazard category assignment.
# […]The final data set comprising 11,992 chemicals was split into training and evaluation sets […], respectively. This process was performed semirandomly by ordering chemicals based on the five end points (categorical and continuous LD50 values) and partitioning every fourth record into the evaluation set accordingly. This approach was taken to ensure an equivalent distribution of the LD50 values and the different hazard categories between the training and the evaluation sets without supervised sampling of the chemicals based on structures (Figure 1A). The sources of the chemical structures were also kept equivalent between the two sets, with chemical structures obtained from DSSTox, being the highest quality, representing over 75% of each set (Figure 1B).
row,Compound,GHS category
1,c1coc(CNc2[nH]cnc3ncnc2-3)c1,5
2,N#Cc1ccc(N(c2ccc(C#N)cc2)c2ccc3c(c2)C(=O)N(Cc2cccnc2)C3=O)cc1,5
3,O=C1CCCCCCCCCCOCCCCO1,5
4,CCN(CC)C(=O)CCCn1nnnc1C,4
5,FC(F)(Cl)Cl,4
6,COc1ccc2[nH]cc(CCNC(C)=O)c2c1,5
7,O=C(c1ccc(Cl)cc1)n1ccnc1-c1ccccc1,4
8,CC(=O)OCC(=O)[C@@]1(O)CC[C@H]2[C@@H]3CCC4=CC(=O)CC[C@]4(C)[C@@]3(F)[C@@H](O)C[C@@]21C,4
9,CN(C)CC(=O)N/N=C/c1c(Cl)nc2n1CCS2,4
10,Cc1cccc(C)c1NC(=O)CN1CCN(CCCC(c2ccc(F)cc2)c2ccc(F)cc2)CC1,5
11,c1ccc(C2=NN(c3ccccc3)C(c3ccccc3)C2)cc1 (configuration not stated),5
12,CC1CC(OC(=O)C(C)Oc2ccc(Cl)cc2)CC(C)(C)C1 (configuration not stated),5
13,Cc1ccc(OP(=O)(Oc2ccc(C)cc2C)Oc2ccc(C)cc2C)c(C)c1,5
14,O=C1c2ccc(Oc3ccc(Cl)cc3)cc2C(=O)N1Cc1cccnc1,5
15,NC(=O)c1cn(CCO)nc1[N+](=O)[O-],5
16,CC(C)CCCCCCCOCCC#N,5
17,O=S(=O)(O)c1cc(Nc2nc(Nc3ccccc3)nc(Nc3ccccc3)n2)ccc1C=Cc1ccc(Nc2nc(Nc3ccccc3)nc(Nc3ccccc3)n2)cc1S(=O)(=O)O,5
18,C=C(C)C(=O)OCCOC(=O)CC(C)=O,5
19,Cc1ccc(C(=O)O)c(Oc2ccccc2CC(=O)O)c1C,5
20,COC(=O)c1ccc(C(=O)OC)c(N=NC(C(C)=O)C(=O)Nc2ccc(NC(=O)C(N=Nc3cc(C(=O)OC)ccc3C(=O)OC)C(C)=O)cc2)c1 (configuration not stated),5
21,CCOC(=O)c1nn(-c2ccc(OC)cc2)c2c1CCN(c1ccc([N+](=O)[O-])cc1)C2=O,5

row,Compound,GHS category
1,CC(=O)c1ccc(Oc2ccc(Cl)cc2)cc1Cl,5
2,NCCC(=O)NC(Cc1cnc[nH]1)C(=O)O (configuration not stated),5
3,CCOC(=O)C1=C(C)NC(C)=C(C(=O)OCCN2C(=O)c3ccccc3S2(=O)=O)C1C (configuration not stated),5
4,Cn1ccnc1Cc1nn[nH]n1,5
5,CCOC(=O)CC(=O)N1CCSC1COc1ccccc1OC (configuration not stated),5
6,CCCCCCCCCCCCCCCCCC(=O)OCC,5
7,COC[C@H]1CO[C@@](Cn2cncn2)(c2cc3ccccc3o2)O1,4
8,O=C(c1ccccc1)C1(O)CCCCC1,5
9,CCCCCCCN(CCCCCCC)CC(O)c1cc2ccccc2c2cc(Br)ccc12 (configuration not stated),5
10,CCOC[C@H]1CO[C@@](Cn2ccnc2)(c2cc3cc(Cl)cc(Cl)c3o2)O1,4
11,O=S(=O)(O)c1ccc(Nc2nc(Cl)nc(Cl)n2)cc1,5
12,OC[C@@H](O)[C@@H](O[C@@H]1O[C@H](CO)[C@H](O)[C@H](O)[C@H]1O)[C@H](O)[C@@H](O)CO,5
13,CCCCCCCCCCCCCCCCCC#N,5
14,COc1cc(OC)nc(NC(=O)NS(=O)(=O)Nc2ccccc2C(=O)N(C)C)n1,5
15,CC(c1ccc2c(c1)Cc1ccccc1-2)S(=O)CC(=O)O (configuration not stated),4
16,CCCC(=O)O[C@]1(C(=O)COC(C)=O)CC[C@H]2[C@@H]3C[C@H](F)C4=CC(=O)C=C[C@]4(C)[C@@]3(F)[C@@H](O)C[C@@]21C,5
17,OC1C(Cl)(Cl)C(=C(Cl)Cl)C2(OC2Cl)C1(Cl)Cl (configuration not stated),4
18,CCCCCBr,5
19,CCCCCCCCCCCCCCCCCC,5
20,CCCCCCCC/C=C\CCCCCCCC(=O)NCC(C)O (configuration not stated),5
21,NS(=O)(=O)c1cc2c(cc1Cl)N=C(CSCc1ccccc1)NS2(=O)=O,5

row,Compound,GHS category
1,O=C(OOC(=O)c1ccc(Cl)cc1Cl)c1ccc(Cl)cc1Cl,5
2,CO[C@]1(C)CC[C@@]23C[C@@H]1C(C)(C)[C@@H]2CC[C@H]3C,5
3,COc1ccc(C2(c3ccc(OC)c(C)c3)NC(=O)NC2=O)cc1 (configuration not stated),5
4,O=C1CCc2c(cccc2OCCCN2CCC(O)(c3ccccc3)CC2)N1,4
5,CC(C)(c1ccccc1)c1cc(-n2nc3ccccc3n2)c(O)c(C(C)(C)c2ccccc2)c1,5
6,CCOC(=O)c1cnn(-c2cccc(C)c2)c1C#N,4
7,CCOc1cc(NCCCN(C)C)c(=O)n(-c2ccccc2)n1,5
8,CC(C)C(=O)OCC=Cc1ccccc1,5
9,CCCCCCCCC(=O)NO,5
10,CC(C)OC(=O)C(C)(C)Br,5
11,O=C(O)CSCC(=O)NC1CCSC1=O (configuration not stated),5
12,O=C(OCCOCCO)c1ccccc1Nc1ccc(O)c(C(F)(F)F)c1,4
13,CC12CCC(=O)C=C1CCC1C3CCC4(CCC(=O)O4)C3CCC12C (configuration not stated),5
14,C=C1CC[C@H](O)C/C1=C/C=C1\CCC[C@]2(C)[C@@H]([C@H](C)CC[C@@H](O)C(C)(C)O)CC[C@@H]12,2
15,COc1nc(OC)nc(C(=O)c2cccc(F)c2N(C)S(=O)(=O)C(F)(F)F)n1,5
16,CC(=O)c1c(C)c([N+](=O)[O-])c(C(C)(C)C)c([N+](=O)[O-])c1C,5
17,CN(SN(C)C(=O)Oc1ccc(C(C)(C)c2ccc(OC(=O)N(C)SN(C)C(=O)ON=C3CSCCS3)cc2)cc1)C(=O)ON=C1CSCCS1,4
18,CCOC(=O)C(Cl)(Cl)Cl,5
19,O=c1[nH]c(=O)n([C@H]2O[C@H](CO)[C@@H](O)[C@@H]2O)cc1/C=C\Br,5
20,CC(=O)OCC(=O)C1(O)C(O)CC2C3CCC4=CC(=O)C=CC4(C)C3=CCC21C (configuration not stated),5
21,C=C(C)C(=O)OCC[N+](C)(C)C,5

row,Compound,GHS category
1,COc1ccc(C=Nc2ccccc2C(=O)O)cc1,4
2,CCCCOC(=O)c1ccccc1N,5
3,COC(=O)c1ccc2cc(C(=O)OC)ccc2c1,5
4,CC1(C)COC(Cn2cncn2)(c2cc3ccccc3o2)OC1,4
5,CN1CC(O)C2=C/C(=N/NC(N)=O)C(=O)C=C21 (configuration not stated),5
6,CC(Oc1ccc(Oc2ncc(C(F)(F)F)cc2Cl)cc1)C(=O)O (configuration not stated),4
7,CCOC(=O)C(C)(C)c1ccccc1,5
8,COC(=O)COc1nc(F)c(Cl)c(N)c1Cl,5
9,COc1cc(OC)c(NC(=O)c2cc3ccccc3cc2O)cc1Cl,5
10,CCC(c1ccc(O)cc1)C(C#N)c1ccc(O)cc1 (configuration not stated),5
11,CC(C)(C)CC(C)(C)c1ccc(O)c(-n2nc3ccccc3n2)c1,5
12,Cc1c(C)c2c(c(C)c1O)CCC(C)(COc1ccc(CC3SC(=O)NC3=O)cc1)O2 (configuration not stated),5
13,OC1(c2ccc(Cl)c(Cl)c2)c2ccccc2C2=NCCCN21 (configuration not stated),4
14,NC(=O)c1ccc(NC(=O)c2ccc([N+](=O)[O-])cc2)cc1,5
15,CCCCCCCC1CCCC1=O (configuration not stated),5
16,CCCCc1c(Cc2ccc(-c3ccccc3-c3nn[nH]n3)cc2)c(=O)nc2nc(C)[nH]n12,4
17,CC(C)(C)N(Sc1nc2ccccc2s1)Sc1nc2ccccc2s1,5
18,Cc1cnc2c(C(=O)O)c(Cl)ccc2c1,5
19,CCCCCCCCCCCCCC(=O)OCCCC,5
